Measured values published in US10478425B2, “5-phenylazaindole derivative having AMPK-activating activity” (Shionogi & Co., Ltd., priority 2016, dated 2019).

The compounds below were run against T1, Human AMPK α2β2γ1 (Homo sapiens, UniProt O43741+P54646) (assay: Test Example 2: activation of phosphorylated human AMPK α2β2γ1 (mobility-shift kinase assay, FL-Peptide 7)). Conditions: compound concentration showing 150% relative to the control (100%); human AMPK α2β2γ1 phosphorylated with CaMKK2.
T1 construct: The full length cDNAs of human AMPK β2 (NM_005399.3) and human AMPK α2 (NM_006252.3); The full length cDNAs of human AMPK β2 (NM_005399.3); the full length cDNA of human AMPK γ1 (NM_002733.3) had been inserted into pET28b(+); 6×His (N); made in house; host or cells: Escherichia coli BL21 CodonPlus (DE3)-RIL
Assay type: biochemical
Protocol: The full length cDNAs of human AMPK β2 (NM_005399.3) and human AMPK α2 (NM_006252.3) were inserted into the MCS1 and MCS2 of the pETDuet-1 vector to prepare a human AMPK β2 and human AMPK α2 (6×His tag at the 5′ terminus) expressing plasmid. The plasmid was cotransfected with an expression plasmid, in which the full length cDNA of human AMPK γ1 (NM_002733.3) had been inserted into pET28b(+), into BL21 CodonPlus (DE3)-RIL to obtain an expression strain. The expression strain was cultured in TB medium, followed by induction with 0.5 mM IPTG, and cultured at 25° C. for 3 hours and then harvested. After ultrasonication, supernatant was collected and applied to Histrap FF column (GE) and RESOUECE Q column (GE) to prepare 12.5 mg of purified sample containing three types of subunit from 1.8 L of broth.
An expression vector, in which the full length cDNA of human CAMKK β (NM_172226.1) had been inserted into pGEX-6P-3, was transfected into BL21 Star (DE3). The expression strain was cultured in TB medium, followed by induction with 0.5 mM IPTG, and cultured at 25° C. for 3 hours and then harvested. After ultrasonication, supernatant was collected and applied to GSTrap FF column (GE) to prepare 14 mg of GST-fused CAMKK β from 720 ml of broth.
Thus, phosphorylation treatment was carried out as pretreatment.
Human AMPK α2β2γ1 in an amount to give a conversion rate of approximately 10% by reaction for 2 hours, and CaMKK2 in an amount capable of sufficiently imparting activity to AMPK for one hour were mixed in a buffer solution consisting of a 50 mM HEPES-NaOH buffer solution (pH 7.0), 100 mM NaCl, 5 mM magnesium chloride, 0.1% bovine serum albumin, 0.2 mM sodium orthovanadate(V), 1 mM ethylene glycol-bis(2-aminoethyl ether)-N,N,N′,N′-tetraacetic acid (EGTA), 5 mM disodium β-glycerophosphate, 1 mM dithiothreitol and 0.2 mM ATP, and the resulting liquid was left to stand at 25° C. for 1 to 1.5 hours to sufficiently phosphorylate AMPK.
After that, to the enzyme liquid, which had been subjected to phosphorylation treatment, a compound dissolved in DMSO was added so as to have a 1% DMSO concentration. The resulting liquid was left to stand for 10 minutes.
To the liquid, a substrate solution consisting of a 50 mM HEPES-NaOH buffer solution (pH 7.0), 100 mM NaCl, 10 mM magnesium chloride, 0.1% bovine serum albumin, 0.2 mM sodium orthovanadate(V), 1 mM ethylene glycol-bis(2-aminoethyl ether)-N,N,N′,N′-tetraacetic acid (EGTA), 5 mM disodium β-glycerophosphate, 2 mM dithiothreitol, 0.4 mM ATP and 3 μM FL-Peptide 7 (manufactured by Caliper Life Sciences, Inc.) was added in equal amount (10 μl in total). The resulting liquid was allowed to react at 25° C. for 2 hours, then 10 μl of 20 mM EDTA was added thereto to stop the reaction.
To detect phosphorylated fluorescent substrates, the reaction mixture was applied to a measuring device, LabChip EZ Reader II manufactured by Caliper Life Science, Inc., for detecting fluorescence by using differences in mobility due to differences in charge. The setting conditions for the device were pressure, −1.5 PSI; upstream voltage, −2250 V; downstream voltage, −400 V; post sample buffer sip time, 40 seconds; final delay, 120 seconds; and peak order, Product First.
A conversion rate was calculated from the peak heights of the obtained substrate and product. The conversion rate when not containing a compound was used as a control, and a concentration dependent curve was made by plotting the rate of increase in activity to the control at each concentration of a compound.

T1 sequence (P54646 whole entry): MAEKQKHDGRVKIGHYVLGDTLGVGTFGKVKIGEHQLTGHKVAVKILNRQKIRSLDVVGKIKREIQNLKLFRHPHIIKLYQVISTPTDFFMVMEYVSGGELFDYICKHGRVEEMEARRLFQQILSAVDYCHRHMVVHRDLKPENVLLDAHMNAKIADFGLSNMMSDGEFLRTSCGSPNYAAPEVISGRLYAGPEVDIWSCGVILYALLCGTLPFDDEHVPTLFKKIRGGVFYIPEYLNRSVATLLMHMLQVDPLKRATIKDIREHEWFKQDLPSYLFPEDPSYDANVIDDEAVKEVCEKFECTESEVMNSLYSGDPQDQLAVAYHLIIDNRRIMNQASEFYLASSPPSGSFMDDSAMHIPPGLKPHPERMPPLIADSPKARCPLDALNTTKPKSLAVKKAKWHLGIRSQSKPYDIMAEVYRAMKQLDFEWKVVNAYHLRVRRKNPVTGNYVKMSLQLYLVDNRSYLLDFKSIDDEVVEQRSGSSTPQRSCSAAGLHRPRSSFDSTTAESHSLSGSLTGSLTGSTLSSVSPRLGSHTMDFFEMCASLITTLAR
T1 sequence (O43741 whole entry): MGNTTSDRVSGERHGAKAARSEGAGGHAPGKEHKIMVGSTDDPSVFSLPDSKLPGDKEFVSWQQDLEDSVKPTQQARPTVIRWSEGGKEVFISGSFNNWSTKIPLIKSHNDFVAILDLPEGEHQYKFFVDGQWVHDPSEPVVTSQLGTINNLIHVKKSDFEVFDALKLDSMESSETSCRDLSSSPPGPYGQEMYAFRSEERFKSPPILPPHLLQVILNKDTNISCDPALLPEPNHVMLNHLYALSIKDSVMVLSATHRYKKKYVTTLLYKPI
T1 sequence (P54619 whole entry partner): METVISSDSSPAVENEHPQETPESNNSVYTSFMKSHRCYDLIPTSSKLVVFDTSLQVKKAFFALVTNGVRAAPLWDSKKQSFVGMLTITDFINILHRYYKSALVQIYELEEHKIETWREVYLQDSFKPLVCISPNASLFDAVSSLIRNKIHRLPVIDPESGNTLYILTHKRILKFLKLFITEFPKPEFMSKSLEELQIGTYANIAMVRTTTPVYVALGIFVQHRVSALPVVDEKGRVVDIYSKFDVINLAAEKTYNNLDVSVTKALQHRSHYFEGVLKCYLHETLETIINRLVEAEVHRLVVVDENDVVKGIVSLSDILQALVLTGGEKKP

| SMILES | EC150 [nM] |
| --- | --- |
| CS(=O)(=O)NC1CC=C(c2ccc(-c3nc4cc(O[C@@H]5CO[C@H]6[C@@H]5OC[C@H]6O)[nH]c4cc3F)cc2)CC1 (some centres unmarked) [Compound I-1-17] | 3.4 |
| CNS(=O)(=O)c1ccc(-c2ccc(-c3nc4cc(O[C@@H]5CO[C@H]6[C@@H]5OC[C@H]6O)[nH]c4cc3F)cc2)nc1 [Compound I-1-32] | 8 |
| COCC(=O)Nc1ccc(-c2ccc(-c3nc4cc(O[C@@H]5CO[C@H]6[C@@H]5OC[C@H]6O)[nH]c4cc3F)cc2)cc1 [Compound I-2-10] | 2.9 |
| CP(C)(=O)c1ccc(-c2ccc(-c3nc4cc(O[C@@H]5CO[C@H](CO)C5)[nH]c4cc3F)cc2)cc1 [Compound I-2-65] | 0.6 |
| O[C@@H]1CO[C@H]2[C@@H]1OC[C@H]2Oc1cc2nc(-c3ccc(-c4ccc(N5CCOCC5)cc4)cc3)c(F)cc2[nH]1 [Compound I-2-20] | 2.3 |
| COCCN(C)C(=O)c1ccc(-c2ccc(-c3nc4cc(O[C@@H]5CO[C@H](CO)C5)[nH]c4cc3F)cc2)cc1 [Compound I-2-83] | 0.73 |
| COC(=O)N1CCC(Oc2ccc(-c3ccc(-c4nc5cc(O[C@@H]6CO[C@H]7[C@@H]6OC[C@H]7O)[nH]c5cc4F)cc3)cc2)C1 (some centres unmarked) [Compound I-2-51] | 9.7 |
| CNC(=O)c1ccc(-c2ccc(-c3nc4cc(O[C@@H]5CO[C@H]6[C@@H]5OC[C@H]6O)[nH]c4cc3F)cc2)cc1F [Compound I-1-54] | 3.3 |
| CS(C)(=O)=NC1CC=C(c2ccc(-c3nc4cc(O[C@@H]5CO[C@H](CO)C5)[nH]c4cc3F)cc2)CC1 (some centres unmarked) [Compound I-2-73] | 4.2 |
| COCCOc1ccc(-c2ccc(-c3nc4cc(O[C@@H]5CO[C@H]6[C@@H]5OC[C@H]6O)[nH]c4cc3F)cc2)cc1F [Compound I-2-59] | 40 |
| CCP(=O)(CC)c1ccc(-c2ccc(-c3nc4cc(O[C@@H]5CO[C@H]6[C@@H]5OC[C@H]6O)[nH]c4cc3F)cc2)cc1 [Compound I-2-72] | 2.7 |
| O[C@@H]1CO[C@H]2[C@@H]1OC[C@H]2Oc1cc2nc(-c3ccc(-c4ccc(C5=NCCN5)cc4)cc3)c(F)cc2[nH]1 [Compound I-1-38] | 0.99 |
| CS(C)(=O)=Nc1ccc(-c2ccc(-c3nc4cc(O[C@@H]5CO[C@H](CO)C5(F)F)[nH]c4cc3F)cc2)cc1 [Compound I-2-43] | 6.2 |
| O[C@@H]1CO[C@H]2[C@@H]1OC[C@H]2Oc1cc2nc(-c3ccc(-c4ccc(OC5CNOC5)cc4)cc3)c(F)cc2[nH]1 (some centres unmarked) [Compound I-2-27] | 3.7 |
| COCCS(=N)(=O)c1ccc(-c2ccc(-c3nc4cc(O[C@@H]5CO[C@H]6[C@@H]5OC[C@H]6O)[nH]c4cc3F)cc2)cc1 (some centres unmarked) [Compound I-2-96] | 2.9 |
| O=C1CCCN1c1ccc(-c2ccc(-c3nc4cc(O[C@@H]5CO[C@H]6[C@@H]5OC[C@H]6O)[nH]c4cc3F)cc2)cc1 [Compound I-1-37] | 6.5 |

Same assay, conditions: maximum rate of increase in activity within the measurement range, control = 100%; read-out: Emax

| SMILES | Emax [%] |
| --- | --- |
| CS(=O)(=O)NC1CC=C(c2ccc(-c3nc4cc(O[C@@H]5CO[C@H]6[C@@H]5OC[C@H]6O)[nH]c4cc3F)cc2)CC1 (some centres unmarked) [Compound I-1-17] | 483 |
| CNS(=O)(=O)c1ccc(-c2ccc(-c3nc4cc(O[C@@H]5CO[C@H]6[C@@H]5OC[C@H]6O)[nH]c4cc3F)cc2)nc1 [Compound I-1-32] | 456 |
| COCC(=O)Nc1ccc(-c2ccc(-c3nc4cc(O[C@@H]5CO[C@H]6[C@@H]5OC[C@H]6O)[nH]c4cc3F)cc2)cc1 [Compound I-2-10] | 636 |
| CP(C)(=O)c1ccc(-c2ccc(-c3nc4cc(O[C@@H]5CO[C@H](CO)C5)[nH]c4cc3F)cc2)cc1 [Compound I-2-65] | 673 |
| O[C@@H]1CO[C@H]2[C@@H]1OC[C@H]2Oc1cc2nc(-c3ccc(-c4ccc(N5CCOCC5)cc4)cc3)c(F)cc2[nH]1 [Compound I-2-20] | 375 |
| COCCN(C)C(=O)c1ccc(-c2ccc(-c3nc4cc(O[C@@H]5CO[C@H](CO)C5)[nH]c4cc3F)cc2)cc1 [Compound I-2-83] | 581 |
| COC(=O)N1CCC(Oc2ccc(-c3ccc(-c4nc5cc(O[C@@H]6CO[C@H]7[C@@H]6OC[C@H]7O)[nH]c5cc4F)cc3)cc2)C1 (some centres unmarked) [Compound I-2-51] | 590 |
| CNC(=O)c1ccc(-c2ccc(-c3nc4cc(O[C@@H]5CO[C@H]6[C@@H]5OC[C@H]6O)[nH]c4cc3F)cc2)cc1F [Compound I-1-54] | 416 |
| CS(C)(=O)=NC1CC=C(c2ccc(-c3nc4cc(O[C@@H]5CO[C@H](CO)C5)[nH]c4cc3F)cc2)CC1 (some centres unmarked) [Compound I-2-73] | 681 |
| COCCOc1ccc(-c2ccc(-c3nc4cc(O[C@@H]5CO[C@H]6[C@@H]5OC[C@H]6O)[nH]c4cc3F)cc2)cc1F [Compound I-2-59] | 458 |
| CCP(=O)(CC)c1ccc(-c2ccc(-c3nc4cc(O[C@@H]5CO[C@H]6[C@@H]5OC[C@H]6O)[nH]c4cc3F)cc2)cc1 [Compound I-2-72] | 591 |
| O[C@@H]1CO[C@H]2[C@@H]1OC[C@H]2Oc1cc2nc(-c3ccc(-c4ccc(C5=NCCN5)cc4)cc3)c(F)cc2[nH]1 [Compound I-1-38] | 470 |
| CS(C)(=O)=Nc1ccc(-c2ccc(-c3nc4cc(O[C@@H]5CO[C@H](CO)C5(F)F)[nH]c4cc3F)cc2)cc1 [Compound I-2-43] | 514 |
| O[C@@H]1CO[C@H]2[C@@H]1OC[C@H]2Oc1cc2nc(-c3ccc(-c4ccc(OC5CNOC5)cc4)cc3)c(F)cc2[nH]1 (some centres unmarked) [Compound I-2-27] | 375 |
| COCCS(=N)(=O)c1ccc(-c2ccc(-c3nc4cc(O[C@@H]5CO[C@H]6[C@@H]5OC[C@H]6O)[nH]c4cc3F)cc2)cc1 (some centres unmarked) [Compound I-2-96] | 631 |
| O=C1CCCN1c1ccc(-c2ccc(-c3nc4cc(O[C@@H]5CO[C@H]6[C@@H]5OC[C@H]6O)[nH]c4cc3F)cc2)cc1 [Compound I-1-37] | 405 |
